In patent publication US8193235B2, “Compositions and methods for establishing and maintaining stem cells in an undifferentiated state” (University of Kansas, priority 2009, dated 2012):
Entries after “also recorded” stand apart in the source; their conditions may differ.

Key:
[1] = tested on: C57BL/6 blastocysts; assay: Chimera generation and germ-line transmission by blastocyst injection; assay type: in vivo, mouse
Experimental: Chimera Generation and Germ-Line Transmission. Prepubertal (3 weeks of age) donor C57BL/6 female mice (Jackson Laboratory, Bar Harbor, Me.) were superovulated, mated overnight to intact C57BL/6 stud males and euthanized by cervical dislocation on day 3.5. Uteri were collected after euthanasia and flushed with M2 medium (Millipore, Bilerica, Mass.) for the collection of blastocysts. Eight to ten ES or iPS cells were injected into the blastocoel of each blastocyst. After injection, the blastocysts were surgically transferred into recipient females that were pseudopregnant by mating with vasectomized males. Recipient females carried the pups to term and nursed until weaning at three weeks. High-level chimeras, generated from newly derived ES cells, were mated with C57BL/6 adult mice to test for germline transmission.

[2] = tested on: 129/Sv blastocysts; assay: De novo derivation of new ES cells from blastocysts; assay type: cell-based, mouse
Experimental: De Novo Derivation of New ES Cells With Gö6983. Blastocysts from 6-week-old female 12952/SvPasCrl (129/Sv) strain mice (Charles River Laboratory, Wilmington, Mass.) were isolated at 3.5 day post-coitum. Isolated blasotocysts were plated on gelatin-coated plastic in medium containing Gö6983 and FBS and without LIF. To obtain ES cell colonies, blastocyst outgrowths were disaggregated with trypsin and replated on gelatin-coated wells with Gö6983 and FBS. ES cell colonies were expanded by replating with Gö6983 at clonal or higher density. For in vitro analysis, cells were differentiated following the same protocol described herein. After six passages with Gö6983-condition, chromosome numbers were checked by karyotyping, and injected in C57BL/6 blastocysts for chimera generation.

[3] = tested on: RelA and LGL1/2; assay: Phosphorylation of PKC ζ target proteins in mESCs; assay type: cell-based, mouse
Experimental: Western Blot Analysis. Whole cell lysates were prepared in SDS-gel loading buffer and resolved by 10% PAGE. The antibodies used for this study included β-actin Clone AC-15 from Sigma; p-STAT3 (Tyr705), p-p44/42 MAPK (tyr202/tyr204), p44/42 MAPK, GSK3β, Phospho Akt (Ser473), Akt, p-NFκβ p65 (Ser536), c-Myc, p-c-Myc (Thr58/Ser62), p-p90RSK (Thr359/Ser363), RSK1, Suz12 (D39F6), and Ezh2 (AC22) from Cell Signaling Technology; STAT3 (C-20), Oct-4 (C-10), Nanog (M-149), PKC α (C-20), PKC βI (C-16), PKC βII (C-18), PKC γ (C-19), PKC δ (C-20), PKC ζ (c-20), p-PKC ζ (Thr 410)-R, p-NFκβ p65 (ser311), and RelA (p65) from Santa Cruz Biotechnology; p-LGL1/LGL2 (S650/S654), SSEA4and H3K4Me3 from Abcam; LGL2 (M06), clone 4G2 from Abnova; β-Catenin from BD Transduction Laboratories, and H3K27Me3 and H3K9Me3 from Millipore.

[4] = tested on: H3K27me3, EZH2, H3K9Me3, H3K4Me3 at gene loci; assay: Quantitative ChIP assay of chromatin marks; assay type: cell-based, mouse
Experimental: Quantitative ChIP Assay. Real-time PCR-based quantitative ChIP analysis was performed according to known methods (Dutta, et al. (2008) supra). Proliferating E14 cells (+LIF), ES cells differentiated on Collagen-IV with or without Gö6983 were either trypsinized or collected by using cell-dissociaton buffer and protein-DNA crosslinking was conducted by treating cells with formaldehyde at a final concentration of 1% for 10 minutes at room temperature with gentle agitation. Glycine (0.125 M) was added to quench the reaction. Antibodies against EZH2, SUZ12, H3K27Me3, H3K9Me3, and H3K4Me3 were used to immunoprecipitate protein-DNA crosslinked fragments. Immunoprecipitated DNA was analyzed by real-time PCR (ABI 7500, Applied Biosystem, Foster City, Calif.). Samples from three or more immunoprecipitates were analyzed using a standard curve from sonicated total chromatin (input) samples.

[5] = tested on: ERK1/2; assay: ERK1/2 phosphorylation in ES cells; assay type: cell-based, mouse; details: Gö6983 alone
Experimental: E14 ES Cell Cultures. Cells were grown in ES-IMDM media (Lonza, Walkersville, Md.) in a feeder-free condition. ES-IMDM was supplemented with 15% serum, 10^5 U/100 ml of LIF (ESGRO, Millipore, Calif.) and 0.0124% monothioglycerol (MTG; Sigma Aldrich). Cells were grown for 3-5 days with change of medium every day. For inducing differentiation in monolayer culture and to determine the effect of Gö6983 in preventing differentiation, E14 cells were cultured on gelatin-coated plastics for 8 days without LIF. Details of experiments performed at clonal-density are described herein. To maintain E14 cells with Gö6983, serum supplemented ES-IMDM was used in the presence of 5 μM Gö6983 and was passed after every 3-5 days. For all assays involving elucidation of different signaling mechanism responsible for maintenance of pluripotency, cells from a ˜70% confluent ES culture plate were washed two times with 1× phosphate-buffered saline (PBS), trypsinized and plated on a 6-well tissue culture plate and treated with or without LIF or Gö6983 or different inhibitors for ˜10 hours followed by preparation of protein lysates and RNA. The PKCζ knocked-down E14 cells that were generated in this study were maintained in serum supplemented ES-IMDM on gelatin-coated plates in the absence of Gö6983 or LIF or any other inhibitor and passed after 3-5 days. […]

COc1ccc2c(c1)c(C1=C(c3c[nH]c4ccccc34)C(=O)NC1=O)cn2CCCN(C)C [Gö6983, 3-[1-[3-(dimethylamino)propyl]5-methoxy-1H-indol-3-yl]-4-(1H-indol-3-yl)-1H-pyrrole-2,5-dione]
chimera generation from E14 ES cells maintained with Gö6983 ([1]; 7 passages with Gö6983, injected into C57Bl/6 blastocysts): yielded multiple chimeric mice; also recorded: efficiently generated chimeras | Chimera # ([1]; E14 cells, 59 blastocysts injected, 7 pups): 5 | # of Chimera showing Germline Transmission ([1]; ES 1 (line derived with Gö6983)): 3 | Chimera # ([1]; ES 1 (line derived with Gö6983), 45 blastocysts injected, 15 pups): 5 | # of Chimera showing Germline Transmission ([1]; ES 2 (line derived with Gö6983)): 2 | Chimera # ([1]; ES 2 (line derived with Gö6983), 38 blastocysts injected, 6 pups): 2 | Chimera # ([1]; iPSC 1, 18 blastocysts injected, 5 pups): 3 | Chimera # ([1]; iPSC 2, 30 blastocysts injected, 6 pups): 3 | chimera generation from Gö6983-derived iPS cells ([1]; injected into blastocysts): generate chimeric mice | chimera and germline contribution of Gö6983-derived ES cells ([1]; two lines after six passages, chimeras crossed with C57BL/6 adults): successfully generated adult chimera, which produced germline offsprings | propagation of Gö6983-derived ES cell lines at clonal density ([2]; cultured with Gö6983): successfully propagated in an undifferentiated state | multilineage differentiation potential of established ES cell lines ([2]; embryoid bodies, differentiated on collagen IV): readily formed embryoid bodies and expressed lineage specific markers | derivation of ES cell colonies from blastocyst outgrowths ([2]; serum and Gö6983, without LIF and feeder cells, gelatin-coated plates): multiple ES cell colonies were obtained from 10 blastocysts | phosphorylation of RelA and LGL1/2 [3]: impaired | H3K4 methylation (H3K4Me3) at Oct4 and Nanog loci [4]: high levels of H3K4 methylation | H3K9 methylation at the Oct4 and Nanog loci [4]: inhibited H3K9 methylation | H3K27me3 and EZH2 chromatin occupancy at developmental regulator genes ([4]; mESCs): maintained high levels of H3K27me3 and chromatin occupancy | ERK1/2 phosphorylation [5]: did not inhibit
